Source: patent US20190307141A1, “LACTIC ACID BACTERIAL FERMENTATION PROMOTING AGENT” (MEIJI CO., LTD., priority 2016, published 2019)

How the values were obtained:
Format in all cases: cell-based
[1] = system: Streptococcus thermophilus OLS3059 strain; assay: Fermentation promoting effect in UHT sterilized milk, pH of the fermentation liquid over time; conditions: 43° C.; for fermentation promoting effect (pH of the fermentation liquid over time vs control): test substance 0.05 mmol/kg in UHT sterilized milk, starter 1% (vol/wt); for fermentation promoting effect (pH over time) of mixtures with guanosine in different mixing ratios: adenosine:guanosine 10:0, 7:3, 5:5, 3:7, inosine:guanosine 10:0, 7:3, 5:5, 4:6 (weight ratio), total 0.05 mmol/kg, UHT sterilized milk
Description: (§1) The above test substances were each added to UHT sterilized milk (cow milk sterilized by a UHT method (ultrahigh temperature sterilization method); sterilized at 130° C. for 2 seconds), and warmed to 43° C. […] To the warmed UHT sterilized milk, Streptococcus thermophilus OLS3059 strain (accession number FERM BP-10740) was inoculated as a starter in an inoculation amount of 1% (vol/wt) (corresponding to a bacterial cell concentration of 1 to 2×10^7 cfu/mL), and the fermentation was started at 43° C. As a control, the fermentation using UHT sterilized milk without the above test substances was also carried out. Herein, S. thermophilus OLS3059 strain was cultured using MRS (Difco) at 37° C. for 16 hours for preparation of the bacterial cells to be used in the fermentation below. After culturing using MRS, the bacterial cells were collected by centrifugation (8,000 g for 5 minutes), and then suspended into 0.8% sodium chloride solution. The resulting bacterial cell suspension (bacterial cell concentration of 1 to 2×10^9 cfu/mL) was used as a starter. In the following Examples using S. thermophilus, a S. thermophilus bacterial suspension prepared according to the same method as the present Example was used as a starter, unless otherwise stated.
The pH of the fermentation liquid was measured over time. A decrease in the pH in the lactic acid bacteria culture medium and the fermentation liquid indicates an increase in the amount of lactic acid production associated with the lactic acid bacterial fermentation and is used as an indicator of the progress degree of the lactic acid bacterial fermentation. […]
In this test, a 10 mM solution of each of the test substances (purines) in 0.1N NaOH was added to UHT sterilized milk in an amount such that the concentration of the test substance in the UHT sterilized milk was 0.05 mmol/kg, whereby UHT sterilized milk supplemented with the test substance was prepared. Additionally, as a control, the fermentation using UHT sterilized milk without the test substances (purines) was also carried out.
UHT sterilized milk supplemented with adenine which is a purine base, or a derivative thereof that is adenosine, deoxyadenosine, or adenylic acid (adenosine monophosphate; AMP) added as a test substance, was warmed to 43° C., subsequently S. thermophilus OLS3059 strain was inoculated as a starter in an amount of 1% (vol/wt), and the fermentation was started at 43° C. The pH of the fermentation liquid was measured over time. […]
The fermentation promoting effect on S. thermophilus was examined by the same method as described in Example 2, except that mixtures of adenosine and guanosine in different mixing ratios or mixtures of inosine and guanosine in different mixing ratios were used as test substances.

[2] = system: Lactococcus lactis subsp. lactis OLS3445; assay: Fermentation promoting effect in UHT sterilized milk, pH over time; conditions: adenylic acid 0.05 mmol/kg or 1:1 mixture 0.025% (wt/wt); UHT sterilized milk with 0.2% casein-hydrolyzed peptide, 43° C.
Description: as §1
(§2) The pH of the fermentation liquid was measured over time. A decrease in the pH in the lactic acid bacteria culture medium and the fermentation liquid indicates an increase in the amount of lactic acid production associated with the lactic acid bacterial fermentation and is used as an indicator of the progress degree of the lactic acid bacterial fermentation.
(§3) Starters (bacterial suspensions) were prepared from the respective bacterial strains by the same method as described in Example 1. The starter was inoculated in an inoculation amount of 1% (vol/wt). Except for these points, the fermentation promoting effect was evaluated in the same manner as in Example 1.
(§4) The preparation method and the inoculation amount (%) of the starter are as described in Example 1. Except for these points, the fermentation promoting effect was evaluated in the same manner as in Example 1.

[3] = system: Lactobacillus gasseri OLL2716; assay: as above; conditions: adenylic acid 0.05 mmol/kg or 1:1 mixture 0.025% (wt/wt); UHT sterilized milk with 0.2% casein-hydrolyzed peptide, 43° C.
Description: as §1, §2, §3, §4

[4] = system: Leuconostoc lactis OLS5167; assay: as above; conditions: adenylic acid 0.05 mmol/kg or 1:1 mixture 0.025% (wt/wt); UHT sterilized milk with 0.2% casein-hydrolyzed peptide, 43° C.
Description: as §1, §2, §3, §4

[5] = system: Lactobacillus helveticus OLL1482; assay: as above; conditions: adenylic acid 0.05 mmol/kg or 1:1 mixture 0.025% (wt/wt); UHT sterilized milk with 0.2% casein-hydrolyzed peptide, 43° C.
Description: as §1, §2, §3, §4

[6] = system: Lactobacillus delbrueckii subsp. bulgaricus OLL1073R-1; assay: as above; conditions: adenylic acid 0.05 mmol/kg or 1:1 mixture 0.025% (wt/wt); UHT sterilized milk with 0.2% casein-hydrolyzed peptide, 43° C.
Description: as §1, §2, §3, §4

[7] = system: Lactobacillus johnsonii OLL2725; assay: Fermentation promoting effect in UHT sterilized milk with casein-hydrolyzed peptide, pH over time; conditions: adenylic acid 0.05 mmol/kg or 1:1 mixture 0.025% (wt/wt); UHT sterilized milk with 0.2% casein-hydrolyzed peptide, 43° C.
[8] = system: Lactobacillus acidophilus OLL1836; assay: as above; conditions: adenylic acid 0.05 mmol/kg or 1:1 mixture 0.025% (wt/wt); UHT sterilized milk with 0.2% casein-hydrolyzed peptide, 43° C.

Molecule	fermentation promoting effect (pH of the fermentation liquid over time vs control) [1]	further results
OC[C@H]1O[C@@H](n2cnc3c(O)ncnc32)C[C@@H]1O [deoxyinosine]	notable fermentation promoting effects	–
Nc1cc[nH]c(=O)n1 [cytosine]	did not exhibit the fermentation promoting effects	–
Nc1nc2nc[nH]c2c(=O)[nH]1 [guanine]	did not exhibit the fermentation promoting effects	–
Cc1c[nH]c(=O)[nH]c1=O [thymine]	did not exhibit the fermentation promoting effects	–
O=c1cc[nH]c(=O)[nH]1 [uracil]	did not exhibit the fermentation promoting effects	–
Nc1ncnc2c1ncn2[C@H]1C[C@H](O)[C@@H](CO)O1 [deoxyadenosine]	notable fermentation promoting effects	–
Nc1ncnc2c1ncn2[C@@H]1O[C@H](CO)[C@@H](O)[C@H]1O [adenosine]	notable fermentation promoting effects	fermentation promoting effect (pH over time) of mixtures with guanosine in different mixing ratios [1]: exhibit the fermentation promoting effect in a concentration-dependent manner
O=c1[nH]c(=O)c2[nH]c(=O)[nH]c2[nH]1 [uric acid]	did not exhibit the fermentation promoting effects	–
O=c1[nH]c(=O)c2[nH]cnc2[nH]1 [xanthine]	did not exhibit the fermentation promoting effects	–
OC[C@H]1O[C@@H](n2cnc3c(O)ncnc32)[C@H](O)[C@@H]1O [inosine]	notable fermentation promoting effects	fermentation promoting effect (pH over time) of mixtures with guanosine in different mixing ratios [1]: exhibit the fermentation promoting effect in a concentration-dependent manner
Nc1nc2c(ncn2[C@@H]2O[C@H](CO)[C@@H](O)[C@H]2O)c(=O)[nH]1 [guanosine]	did not exhibit the fermentation promoting effects	fermentation promoting effect (pH over time) of mixtures with guanosine in different mixing ratios [1]: does not exhibit the fermentation promoting effect
Nc1ncnc2nc[nH]c12 [adenine]	notable fermentation promoting effects	–
O=c1[nH]cnc2nc[nH]c12 [hypoxanthine]	notable fermentation promoting effects	–
O=c1ccn([C@@H]2O[C@H](CO)[C@@H](O)[C@H]2O)c(=O)[nH]1 [uridine]	did not exhibit the fermentation promoting effects	–
Nc1nc2c(ncn2[C@H]2C[C@H](O)[C@@H](CO)O2)c(=O)[nH]1 [deoxyguanosine]	did not exhibit the fermentation promoting effects	–
Cc1cn([C@H]2C[C@H](O)[C@@H](CO)O2)c(=O)[nH]c1=O [thymidine]	did not exhibit the fermentation promoting effects	–
adenylic acid [AMP]	notable fermentation promoting effects	fermentation promoting effect (pH over time vs control) [2]: shown in all the strains tested; fermentation promoting effect (pH over time vs control) [3]: shown in all the strains tested; fermentation promoting effect (pH over time vs control) [4]: shown in all the strains tested; fermentation promoting effect (pH over time vs control) [5]: shown in all the strains tested; fermentation promoting effect (pH over time vs control) [6]: shown in all the strains tested; fermentation promoting effect (pH over time vs control) [7]: shown in all the strains tested; fermentation promoting effect (pH over time vs control) [8]: shown in all the strains tested
Nc1ccn([C@@H]2O[C@H](CO)[C@@H](O)[C@H]2O)c(=O)n1 [cytidine]	did not exhibit the fermentation promoting effects	–
